How the values were obtained:
male Sprague-Dawley rats = assay: Catalepsy (vertical grid) in rats; type: in vivo, rat; details: Compound 13 5-100 mg/kg P.O., haloperidol 0.1, 0.3, or 1 mg/kg S.C., 45 minutes post-dose
Procedure: Catalepsy is used as a model for detecting extrapyramidal side effects of antipsychotic drugs. […] The rats were removed from home cages 45 minutes later and placed on a vertical stainless steel grid, and the latency to move both forepaws from their starting position was measured for a maximum of 30 seconds. The test was repeated three times consecutively.
Catalepsy is expressed as the average latency to move both forepaws over the three trials. Latency increased in the rats administered haloperidol (see FIG. 27B), but was unchanged in rats administered Compound 13 (see FIG. 27A).

male Sprague Dawley rats = assay: Plasma prolactin levels in rats (ELISA); type: in vivo, rat; details: basal prolactin release, haloperidol 0.1 and 1 mg/kg P.O., Compound 13 1, 10, and 100 mg/kg P.O., FIG. 28A
Procedure: Another unwanted side effect of certain antipsychotics is hyperprolactinemia. To examine prolactin levels following the administration of a GPR52 agonist, male Sprague Dawley rats (Harlan Laboratories, San Diego, Calif.) were single-housed, handled, and moved to a private housing room one week prior to testing. Rats were individually handled and sham dosed P.O. for four days prior to testing. For an assessment of haloperidol (0.1 and 1 mg/kg P.O.) and Compound 13 (1, 10, and 100 mg/kg P.O.) on basal prolactin release, rats were dosed with acidic 20% HP-β-cyclodextrin (HBCD) or compound at 3 mL/kg P.O. in their housing room 60 minutes prior to harvest. For interaction studies, rats were dosed with 20% HBCD or Compound 13 (10 mg/kg P.O.) 90 minutes prior to harvest, and additionally with 20% HBCD vehicle or haloperidol (0.3 and 1 mg/kg P.O.) 60 minutes prior to harvest. Rats were individually taken to the harvest room, and trunk blood was collected into 4 mL EDTA tubes following live decapitation. Samples were stored on wet ice until collection was complete, then spun in a cooling centrifuge at 2400 rpm for 20 minutes. Plasma was collected and frozen for subsequent analysis using a Rat Prolactin ELISA kit (ALPCO Diagnostics: Cat#55-PRLRT-E01).
Briefly, frozen plasma was thawed on ice and mixed prior to initiation of the ELISA. Twenty-five microliters of sample plasma along with serially diluted standards (lyophilized purified rat prolactin diluted with rat prolactin calibrator/sample diluent), and calibrator/sample diluent used as a blank were placed in a 96-well plate provided with the ELISA kit. Samples, blank, and standards were measured in duplicate. […] Fifty microliters of stop solution (2M hydrochloric acid) was added to the wells prior to reading on a 96-well plate reader (SpectraMax® 340PC; Molecular Devices, Sunnyvale, Calif.) at […]. The quantity of prolactin in each sample was calculated using a standard curve.

O=C(CCCN1CCC(O)(c2ccc(Cl)cc2)CC1)c1ccc(F)cc1 [haloperidol, reference compound]
catalepsy: average latency to move both forepaws (male Sprague-Dawley rats): increased
prolactin levels (male Sprague Dawley rats): increased
